Test results as given in patent US7183276B2, “Azole compounds” (Takeda Pharmaceutical Company Limited, priority 2002, dated 2007).

Compound	melting point
CN1CCC(N(C)C(=O)CCc2oc(-n3cnc4ccccc43)nc2-c2ccc(Cl)cc2)CC1 [Example 193, 3-[2-(1H-benzimidazol-1-yl)-4-(4-chlorophenyl)-5-oxazolyl]-N-methyl-N-(1-methyl-4-piperidinyl)propionamide]	133 to 134 °C
O=C(CCc1oc(-n2cnc3ccccc32)nc1-c1ccc(Cl)cc1)NCc1ccccn1 [Example 154, 3-[2-(1H-benzimidazol-1-yl)-4-(4-chlorophenyl)-5-oxazolyl]-N-(2-pyridinylmethyl)propionamide]	157 to 158 °C
O=C(CCc1oc(-n2cnc3ccccc32)nc1-c1ccc(F)cc1)N1CCC(O)CC1 [Example 258, 1-{3-[2-(1H-benzoimidazol-1-yl)-4-(4-fluorophenyl)-5-oxazolyl]propanoyl}-4-piperidinol]	158 to 159 °C
N#CCc1ccc(NC(=O)Cc2sc(-n3cnc4ccccc43)nc2-c2ccc(Cl)cc2)cc1 [Example 219, 2-[2-(1H-benzimidazol-1-yl)-4-(4-chlorophenyl)-5-thiazolyl]-N-[4-(cyanomethyl)phenyl]acetamide]	245 to 246 °C
O=C(CCc1oc(-n2cnc3ccccc32)nc1-c1ccc(Cl)cc1)Nc1ccccc1CO [Example 109, 3-[2-(1H-benzimidazol-1-yl)-4-(4-chlorophenyl)-5-oxazolyl]-N-[2-(hydroxymethyl)phenyl]propionamide]	159 to 160 °C
O=C(CCc1oc(-n2cnc3ccccc32)nc1-c1ccc(Cl)cc1)NCc1ccc(F)c(Cl)c1 [Example 173, 3-[2-(1H-benzimidazol-1-yl)-4-(4-chlorophenyl)-5-oxazolyl]-N-(3-chloro-4-fluorobenzyl)propionamide]	188 to 189 °C
O=C(CCc1oc(-n2cnc3ccccc32)nc1-c1ccc(Cl)cc1)Nc1ccc(C(F)(F)F)cc1 [Example 121, 3-[2-(1H-benzimidazol-1-yl)-4-(4-chlorophenyl)-5-oxazolyl]-N-[4-(trifluoromethyl)phenyl]propionamide]	259 to 263 °C
NS(=O)(=O)c1ccc(CNC(=O)CCc2oc(-n3cnc4ccccc43)nc2-c2ccc(Cl)cc2)cc1 [Example 151, N-[4-(aminosulfonyl)benzyl]-3-[2-(1H-benzimidazol-1-yl)-4-(4-chlorophenyl)-5-oxazolyl]propionamide]	255 to 256 °C
CCOP(=O)(Cc1ccc(NC(=O)CCc2oc(-n3cnc(C)c3C)nc2-c2ccc(Cl)cc2)cc1)OCC	179 to 180 °C
CCOP(=O)(Cc1ccc(NC(=O)CCc2sc(-n3cnc4ccccc43)nc2-c2ccc(Cl)cc2)cc1)OCC	150 to 151 °C
CCOP(=O)(Cc1ccc(NC(=O)CCc2oc(-n3cnc4ccccc43)nc2-c2ccccc2)cc1)OCC	148 to 149 °C
O=C(/C=C/c1oc(-c2ccccc2)nc1-c1ccc(Cl)cc1)Nc1ccc(C(=O)O)cc1 [Example 65, 4-({(2E)-3-[4-(4-chlorophenyl)-2-phenyl-5-oxazolyl]propenoyl}amino)benzoic acid]	275 to 276 °C
COc1ccccc1NC(=O)CCc1oc(-n2ccnc2C)nc1-c1ccc(Cl)cc1 [Example 71, 3-[4-(4-chlorophenyl)-2-(2-methyl-1-imidazolyl)-5-oxazolyl]-N-(2-methoxyphenyl)propionamide]	153 to 154 °C
CCOP(=O)(Cc1ccc(NC(=O)CCc2oc(C)nc2-c2ccc(Cl)cc2)cc1)OCC	155 to 156 °C
CCCc1nc(-c2ccc(Cl)cc2)c(CCC(=O)N2CCN(CC3CCN(C)CC3)CC2)o1.Cl.Cl	218 °C
Cc1ccc(CNC(=O)CCc2oc(-n3cnc4ccccc43)nc2-c2ccc(Cl)cc2)cc1 [Example 146, 3-[2-(1H-benzimidazol-1-yl)-4-(4-chlorophenyl)-5-oxazolyl]-N-(4-methylbenzyl)propionamide]	210 to 212 °C
O=C(CCc1oc(-n2cnc3ccccc32)nc1-c1ccc(Cl)cc1)NCC(=O)NCc1ccccc1 [Example 148, 2-({3-[2-(1H-benzimidazol-1-yl)-4-(4-chlorophenyl)-5-oxazolyl]propanoyl}amino)-N-benzylacetamide]	186 to 187 °C
O=C(CCc1oc(-n2cnc3ccccc32)nc1-c1ccc(Cl)cc1)Nc1ccc(C2CCCCC2)cc1 [Example 116, 3-[2-(1H-benzimidazol-1-yl)-4-(4-chlorophenyl)-5-oxazolyl]-N-(4-cyclohexylphenyl)propionamide]	216 to 217 °C
CCS(=O)(=O)CCNC(=O)CCc1oc(-n2cnc3ccccc32)nc1-c1ccc(Cl)cc1 [Example 301, 3-[2-(1H-benzoimidazol-1-yl)-4-(4-chlorophenyl)-5-oxazolyl]-N-[2-(ethylsulfonyl)ethyl]propanamide]	182 to 183 °C
Cc1ccc(CNC(=O)CCc2oc(-c3ccccc3)nc2-c2ccc(Cl)cc2)cc1 [Example 166, 3-[4-(4-chlorophenyl)-2-phenyl-5-oxazolyl]-N-(4-methylbenzyl)propionamide]	193 to 194 °C
CCOP(=O)(OCC)C(OC)c1ccc(NC(=O)CCc2oc(-n3cnc4ccccc43)nc2-c2ccc(Cl)cc2)cc1 (stereo not shown)	191 to 192 °C
Cc1ccc(CNC(=O)CCCc2oc(-n3cnc4ccccc43)nc2-c2ccc(Cl)cc2)cc1 [Example 196, 4-[2-(1H-benzimidazol-1-yl)-4-(4-chlorophenyl)-5-oxazolyl]-N-(4-methylbenzyl)butanamide]	190 to 191 °C

Compound	melting point
CCNC(=O)CCCc1oc(-c2ccccc2)nc1-c1ccc(Cl)cc1 [Example 49, N-ethyl-4-[4-(4-chlorophenyl)-2-phenyl-5-oxazolyl]butanamide]	127 to 128 °C
O=C(CCc1oc(-c2ccccc2)nc1-c1ccc(Cl)cc1)Nc1cccnc1 [Example 41, 3-[4-(4-chlorophenyl)-2-phenyl-5-oxazolyl]-N-(3-pyridinyl)propionamide]	204 to 205 °C
CCOP(=O)(Cc1ccc(NC(=O)CCc2oc(-c3ccc(F)cc3)nc2-c2ccc(Cl)cc2)cc1)OCC	148 to 149 °C
CCOP(=O)(Cc1ccc(NC(=O)/C=C/c2sc(-n3cnc4ccccc43)nc2C)cc1)OCC	150 to 151 °C
CCOP(=O)(OCC)C(F)c1ccc(NC(=O)CCc2oc(-n3cnc4ccccc43)nc2-c2ccc(Cl)cc2)cc1 (stereo not shown)	152 to 155 °C
COc1ccc(CNC(=O)CCc2oc(-n3cnc4ccccc43)nc2-c2ccc(Cl)cc2)cc1 [Example 145, 3-[2-(1H-benzimidazol-1-yl)-4-(4-chlorophenyl)-5-oxazolyl]-N-(4-methoxybenzyl)propionamide]	210 to 212 °C
O=C(CCc1oc(-n2cnc3ccccc32)nc1-c1ccc(Cl)cc1)NCc1ccc(Br)cc1 [Example 172, 3-[2-(1H-benzimidazol-1-yl)-4-(4-chlorophenyl)-5-oxazolyl]-N-(4-bromobenzyl)propionamide]	205 to 206 °C
CCOP(=O)(Cc1ccc(NC(=O)CCCc2oc(N3CCN(n4c(=O)[nH]c5ccccc54)CC3)nc2-c2ccc(Cl)cc2)cc1)OCC	205 to 209 °C
CCOP(=O)(Cc1ccc(NC(=O)CCc2sc(-n3cnc4ccccc43)nc2C(C)C)cc1)OCC	171 to 172 °C
N#CCc1cccc(NC(=O)CCc2oc(-n3cnc4ccccc43)nc2-c2ccc(Cl)cc2)c1 [Example 110, 3-[2-(1H-benzimidazol-1-yl)-4-(4-chlorophenyl)-5-oxazolyl]-N-[3-(cyanomethyl)phenyl]propionamide]	188 to 189 °C
CCOC(=O)c1ccc(NC(=O)/C=C/c2oc(-c3ccccc3)nc2-c2ccc(Cl)cc2)cc1 [Example 56, (2E)-3-[4-(4-chlorophenyl)-2-phenyl-5-oxazolyl]-N-[4-(ethoxycarbonyl)phenyl]propenamide]	135 to 140 °C
O=C(CCc1oc(-n2cnc3ccccc32)nc1-c1ccc(Cl)cc1)NCc1ccc(C(F)(F)F)cc1 [Example 138, 3-[2-(1H-benzimidazol-1-yl)-4-(4-chlorophenyl)-5-oxazolyl]-N-[4-(trifluoromethyl)benzyl]propionamide]	194 to 195 °C
O=C(CCc1oc(-n2cnc3ccccc32)nc1-c1ccc(Cl)cc1)Nc1ccccc1 [Example 120, 3-[2-(1H-benzimidazol-1-yl)-4-(4-chlorophenyl)-5-oxazolyl]-N-phenylpropionamide]	226 to 227 °C
NC(=O)CCc1oc(C2CCCCC2)nc1-c1ccc(Cl)cc1 [Example 17, 3-[4-(4-chlorophenyl)-2-cyclohexyl-5-oxazolyl]propionamide]	142 to 143 °C
O=C(CCc1oc(-n2cnc3ccccc32)nc1-c1ccc(Cl)cc1)Nc1cccc(CO)c1 [Example 108, 3-[2-(1H-benzimidazol-1-yl)-4-(4-chlorophenyl)-5-oxazolyl]-N-[3-(hydroxymethyl)phenyl]propionamide]	206 to 207 °C
Cc1cc(C)n(-c2nc(-c3ccc(Cl)cc3)c(CCC(=O)N3CCN(CC4CCN(C)CC4)CC3)o2)n1 [Example 347, 1-{3-[4-(4-chlorophenyl)-2-(3,5-dimethyl-1H-pyrazol-1-yl)-5-oxazolyl]propanoyl}-4-[(1-methyl-4-piperidinyl)methyl]piperazine]	126 to 127 °C
CCOP(=O)(Cc1ccc(NC(=O)CCc2oc(NCc3ccccc3)nc2-c2ccc(Cl)cc2)cc1)OCC	156 to 157 °C
CCOP(=O)(Cc1ccc(NC(=O)CCc2sc(NC(=O)NC)nc2-c2ccc(Cl)cc2)cc1)OCC	206 to 207 °C
CCOP(=O)(Cc1ccc(NC(=O)CCCCCc2sc(-n3cnc4ccccc43)nc2-c2ccc(Cl)cc2)cc1)OCC	149 to 151 °C
COC(=O)c1ccc(NC(=O)CCc2oc(-c3ccccc3)nc2-c2ccc(Cl)cc2)cc1 [Example 42, 3-[4-(4-chlorophenyl)-2-phenyl-5-oxazolyl]-N-[4-(methoxycarbonyl)phenyl]propionamide]	198 to 200 °C
O=C(CCc1oc(-n2cnc3ccccc32)nc1-c1ccc(Cl)cc1)NCc1ccc(F)c(Br)c1 [Example 170, 3-[2-(1H-benzimidazol-1-yl)-4-(4-chlorophenyl)-5-oxazolyl]-N-(3-bromo-4-fluorobenzyl)propionamide]	206 to 207 °C
